Data: article PMC7403421, “Uncovering a possible role of reactive oxygen species in magnetogenetics” (Scientific Reports, 2020)

Target: T1, TRPV1 (Rattus norvegicus, UniProt O35433)
T1 construct: rat TRPV1 with an N-terminally fused camelidae anti-GFP nanobody (αGFPnb-TRPV1), co-expressed with eGFP-tagged ferritin dimer in HEK-293T cells
Assay: agonist dose response in Ca2+-dependent SEAP reporter and fluorescent calcium imaging in HEK-293T cells expressing TRPV1
Type: cell-based

T1 sequence (O35433 whole entry, the tested form may be a part): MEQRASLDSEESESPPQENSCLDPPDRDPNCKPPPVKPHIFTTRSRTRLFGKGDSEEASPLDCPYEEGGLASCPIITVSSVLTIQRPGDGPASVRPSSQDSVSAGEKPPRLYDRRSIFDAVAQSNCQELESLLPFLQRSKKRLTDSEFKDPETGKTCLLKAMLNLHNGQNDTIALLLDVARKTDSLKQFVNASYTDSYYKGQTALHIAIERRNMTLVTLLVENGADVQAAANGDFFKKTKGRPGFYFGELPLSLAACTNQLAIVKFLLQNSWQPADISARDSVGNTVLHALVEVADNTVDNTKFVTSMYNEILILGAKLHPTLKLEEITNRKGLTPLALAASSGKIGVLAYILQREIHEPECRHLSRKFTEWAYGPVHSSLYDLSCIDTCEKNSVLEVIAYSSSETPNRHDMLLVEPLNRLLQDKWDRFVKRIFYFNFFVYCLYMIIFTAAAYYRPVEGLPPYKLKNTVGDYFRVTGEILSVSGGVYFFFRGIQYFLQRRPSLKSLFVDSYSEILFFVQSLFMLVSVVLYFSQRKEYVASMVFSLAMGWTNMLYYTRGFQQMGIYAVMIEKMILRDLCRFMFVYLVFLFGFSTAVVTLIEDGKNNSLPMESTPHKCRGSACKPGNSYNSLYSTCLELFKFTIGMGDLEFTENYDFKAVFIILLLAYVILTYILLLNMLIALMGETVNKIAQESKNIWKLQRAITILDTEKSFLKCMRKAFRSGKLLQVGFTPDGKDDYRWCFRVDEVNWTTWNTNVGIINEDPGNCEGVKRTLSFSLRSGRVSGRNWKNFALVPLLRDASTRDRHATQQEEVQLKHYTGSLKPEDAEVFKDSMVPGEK

COc1cc(CNC(=O)CCCC/C=C/C(C)C)ccc1O [capsaicin]
agonist dose response in Ca2+-dependent SEAP reporter and fluorescent calcium im: Dose dependent TRPV1-mediated SEAP production was observed with respect to both capsaicin and inhibitor concentration
